Test results: US20060122174A1, “Antiviral treatment” (Henderson Morley Research & Development Limited, priority 2001, published 2006)
Where two headings read alike, the source gives them in different places.

Test system: type 2 herpes simplex strain 3345
Experiment: In vitro bioassay: inhibition of virus replication in infected African green monkey kidney cells
Assay type: cell-based, type 2 herpes simplex virus
Settings: for Inhibition of hsv2, Effect of bendrofluazide: 0.25 mg bendrofluazide/ml liquid medium; for inhibition at 1000 µg/mL: frusemide 1 mg/ml, African green monkey kidney cells
From the text: In vitro bioassays were undertaken to follow the anti-viral activity of a diuretic compound. […] Inhibition of virus replication was scored on the scale: […]

With NS(=O)(=O)c1cc2c(cc1C(F)(F)F)NC(Cc1ccccc1)NS2(=O)=O (stereo not drawn) [bendrofluazide] the “Inhibition of hsv2, Effect of bendrofluazide” value (shortened to “Inhibition … of bendrofluazide”) (High multiplicity of infection) was “++ (40% inhibition)”, the “Inhibition … of bendrofluazide” value (Low multiplicity of infection) was “++++ (80% inhibition)” and the “Inhibition … of bendrofluazide” value (Medium multiplicity of infection) was “++++ (80% inhibition)”.

NS(=O)(=O)c1cc(C(=O)O)c(NCc2ccco2)cc1Cl [frusemide, 4-chloro-N-furfuryl-5-sulfamoylanthranilic acid] gave an inhibition at 1000 µg/mL (Human alphaherpesvirus 2, read-out: Inhibition of hsv2, Effect of frusemide, High multiplicity of infection) of 0%, an inhibition at 1000 µg/mL (Human alphaherpesvirus 2, read-out: Inhibition of hsv2, Effect of frusemide, Low multiplicity of infection) of 40% and an inhibition at 1000 µg/mL (Human alphaherpesvirus 2, read-out: Inhibition of hsv2, Effect of frusemide, Medium multiplicity of infection) of 40%.

In the case of CCCCNC(=O)NS(=O)(=O)c1ccc(C)cc1 [tolbutamide], the “Inhibition of hsv2, effect of tolbutamide” value (“Inhibition … of tolbutamide” below) (High multiplicity of infection, 0.5 mg tolbutamide/ml liquid medium) is reported as “+ (20% inhibition)”, the “Inhibition … of tolbutamide” value (High multiplicity of infection, 5 mg tolbutamide/ml liquid medium) is reported as “++ (40% inhibition)” and the “Inhibition … of tolbutamide” value (High multiplicity of infection, 50 mg tolbutamide/ml liquid medium) is reported as “+++ (60% inhibition)”. The “Inhibition … of tolbutamide” value (Low multiplicity of infection, 0.5 mg tolbutamide/ml liquid medium) was “++ (40% inhibition)”, the “Inhibition … of tolbutamide” value (Low multiplicity of infection, 5 mg tolbutamide/ml liquid medium) was “+++ (60% inhibition)” and the “Inhibition … of tolbutamide” value (Low multiplicity of infection, 50 mg tolbutamide/ml liquid medium) was “+++++ (100% inhibition)”. The “Inhibition … of tolbutamide” value (Medium multiplicity of infection, 0.5 mg tolbutamide/ml liquid medium) was “+ (20% inhibition)”, the “Inhibition … of tolbutamide” value (Medium multiplicity of infection, 5 mg tolbutamide/ml liquid medium) was “+++ (60% inhibition)” and the “Inhibition … of tolbutamide” value (Medium multiplicity of infection, 50 mg tolbutamide/ml liquid medium) was “++++ (80% inhibition)”.
